In brackets after ≈: the same amount, converted by molar mass.
Tested on: Mycobacterium smegmatis recombinant strains
Experiment: microbe, parasite or virus in culture
Assay type: cell-based
Settings: Mycolicibacterium smegmatis, read-out: RFP MIC

SMILES: CO[C@H]1/C=C/O[C@@]2(C)Oc3c(C)c(O)c4c(O)c(c(/C=N/N5CCN(C)CC5)c(O)c4c3C2=O)NC(=O)/C(C)=C\C=C\[C@H](C)[C@H](O)[C@@H](C)[C@@H](O)[C@@H](C)[C@H](OC(C)=O)[C@@H]1C [RFP, 3-(4-Methylpiperazinyliminomethyl)-rifamycin]
- MIC: 150 µg/mL (≈ 182 µM)
